Reference: patent publication US20110251379A1, “COMPOUNDS USEFUL FOR TREATING NEURODEGENERATIVE DISORDERS” (Satori Pharmaceuticals, Inc., priority 2010, published 2011)
Like-named read-outs stand apart in the source and are kept apart here.

Tested on: amyloid-beta (1-42) peptide
Test: ELISA assay of amyloid-beta (1-42) in conditioned media of 2B7 cells
Format: cell-based
Conditions: for % Inhibition (range) / inhibition at 20 µM: Aβ-42, 20 umol/L; for IC50: Aβ-42, 2B7 cells, 5 hours, read-out: IC50 range; for inhibition at 10 µM: Aβ-42, 10 umol/L; for inhibition at 10 µM / inhibition at 100 µM / inhibition at 20 µM: read-out: % Inhibition (range); for inhibition at 100 µM: Aβ-42, 100 umol/L
Method in brief: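 2B7 cells were treated with compounds for 5 hours at 37° C in media with 1% DMSO. Conditioned media, diluted 1:2 in blocking buffer, went into a sandwich ELISA with 6E10 capture and an HRP-labelled detection antibody, read by TMB at 450 nm. Values came from an Aβ peptide standard curve.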

CC1CC(C(O)C(C)(C)O)OC2C1C1(C)CCC34CC35CCC(OC3CN(C6CCOC6)CCO3)C(C)(C)C5CCC4C1(C)C2O (single isomer, unassigned) [drawing 1106]
% Inhibition (range): E (% inhibition of 25-75%)

CC1CC(CO)OC2C1C1(C)CCC34CC35CCC(OC3OCC(O)C(O)C3O)C(C)(C)C5CCC4C1(C)C2O (stereo not shown) [drawing 782]
% Inhibition (range): E (% inhibition of 25-75%)
IC50: > 10000 nM

CC1CC(CO)OC2C1C1(C)CCC34CC35CCC(OC3OCC(O)C(O)C3O)C(C)(C)C5CCC4C1(C)C2O (stereo not shown) [drawing 783]
IC50: 1000 to 10000 nM

CC(=O)OC(C1CC(C)C2C(O1)C(O)C1(C)C3CCC4C(C)(C)C(OC5CN(S(C)(=O)=O)CCO5)CCC45CC35CCC21C)C(C)(C)O (stereo not shown) [drawing 785]
IC50: ≤ 1000 nM

CC(=O)OC(C1CC(C)C2C(O1)C(O)C1(C)C3CCC4C(C)(C)C(OC(=O)C5CNC5)CCC45CC35CCC21C)C(C)(C)O (stereo not shown) [drawing 791]
IC50: ≤ 1000 nM

CC(=O)OCC1CC(C)C2C(O1)C(O)C1(C)C3CCC4C(C)(C)C(OC5OCC(O)C(O)C5O)CCC45CC35CCC21C (stereo not shown) [drawing 792]
IC50: 1000 to 10000 nM

CC(=O)N(Cc1ccccc1)CC1CC(C)C2C(O1)C(O)C1(C)C3CCC4C(C)(C)C(O)CCC45CC35CCC21C (stereo not shown) [drawing 801]
IC50: 1000 to 10000 nM

CC1CC(C(=O)O)OC2C1C1(C)CCC34CC35CCC(O)C(C)(C)C5CCC4C1(C)C2O (stereo not shown) [drawing 803]
IC50: > 10000 nM

CCC(=O)OC(C1CC(C)C2C(O1)C(O)C1(C)C3CCC4C(C)(C)C(OC5CN(C6COC6)CCO5)CCC45CC35CCC21C)C(C)(C)O (stereo not shown) [drawing 805]
IC50: ≤ 1000 nM

CC(=O)OCC1CC(C)C2C(O1)C(O)C1(C)C3CCC4C(C)(C)C(OC(=O)c5cccnc5)CCC45CC35CCC21C (stereo not shown) [drawing 832]
IC50: 1000 to 10000 nM

CC(=O)N(Cc1cc(F)cc(F)c1)CC1CC(C)C2C(O1)C(O)C1(C)C3CCC4C(C)(C)C(O)CCC45CC35CCC21C (stereo not shown) [drawing 839]
IC50: ≤ 1000 nM

CC(=O)N(Cc1ccccn1)CC1CC(C)C2C(O1)C(O)C1(C)C3CCC4C(C)(C)C(O)CCC45CC35CCC21C (stereo not shown) [drawing 841]
IC50: 1000 to 10000 nM

CC(=O)N(CC1CC(C)C2C(O1)C(O)C1(C)C3CCC4C(C)(C)C(O)CCC45CC35CCC21C)C(C)c1ccccc1 (stereo not shown) [drawing 844]
IC50: < 10000 nM

CC(=O)N(CC1CC(C)C2C(O1)C(O)C1(C)C3CCC4C(C)(C)C(O)CCC45CC35CCC21C)C(C)C (stereo not shown) [drawing 845]
IC50: 1000 to 10000 nM

CC(=O)N(CC1CC(C)C2C(O1)C(O)C1(C)C3CCC4C(C)(C)C(O)CCC45CC35CCC21C)C(C)c1ccccc1 (stereo not shown) [drawing 851]
IC50: 1000 to 10000 nM

CC1CC(C(OC(=O)C2CC2)C(C)(C)O)OC2C1C1(C)CCC34CC35CCC(O)C(C)(C)C5CCC4C1(C)C2O (stereo not shown) [drawing 853]
IC50: ≤ 1000 nM

CC(=O)N(Cc1cc(F)cc(F)c1)CC1CC(C)C2C(O1)C(O)C1(C)C3CCC4C(C)(C)C(OC(=O)C5CNC5)CCC45CC35CCC21C (stereo not shown) [drawing 856]
IC50: 1000 to 10000 nM

CC1CC(C(OC(=O)C2CCC2)C(C)(C)O)OC2C1C1(C)CCC34CC35CCC(O)C(C)(C)C5CCC4C1(C)C2O (stereo not shown) [drawing 859]
IC50: ≤ 1000 nM

CC1CC(C(OC(=O)N(C)C)C(C)(C)O)OC2C1C1(C)CCC34CC35CCC(O)C(C)(C)C5CCC4C1(C)C2O (stereo not shown) [drawing 862]
IC50: > 10000 nM

CC1CC(C(=O)C(C)(C)O)OC2C1C1(C)CCC34CC35CCC(O)C(C)(C)C5CCC4C1(C)C2O (stereo not shown) [drawing 864]
IC50: > 10000 nM

CC1CC(C(OC(=O)C2CCC2)C(C)(C)O)OC2C1C1(C)CCC34CC35CCC(OC3CN(C6COC6)CCO3)C(C)(C)C5CCC4C1(C)C2O (stereo not shown) [drawing 865]
IC50: > 10000 nM

CC(C)C(=O)OC(C1CC(C)C2C(O1)C(O)C1(C)C3CCC4C(C)(C)C(OC5CN(C6COC6)CCO5)CCC45CC35CCC21C)C(C)(C)O (stereo not shown) [drawing 866]
IC50: > 10000 nM

C[C@@H]1C[C@H]([C@H](O)C(C)(C)O)OC2C1[C@@]1(C)CC[C@@]34C[C@@]35CC[C@H](O)C(C)(C)[C@@H]5CC[C@H]4[C@]1(C)[C@H]2O (stereo partly shown) [drawing 887]
inhibition at 10 µM: < 25%
IC50: 1000 to 10000 nM

C[C@@H]1C[C@H]([C@H](O)C(C)(C)O)OC2C1[C@@]1(C)CC[C@@]34C[C@@]35CC[C@H](O)C(C)(C)[C@@H]5CC[C@H]4[C@]1(C)[C@H]2O (stereo partly shown) [drawing 888]
inhibition at 100 µM: 25 to 75%

C[C@@H]1C[C@H]([C@H](O)C(C)(C)O)OC2C1[C@@]1(C)CC[C@@]34C[C@@]35CC[C@H](O)C(C)(C)[C@@H]5CC[C@H]4[C@]1(C)[C@H]2O (stereo partly shown) [drawing 889]
inhibition at 20 µM: < 25%
IC50: > 10000 nM

C[C@@H]1C[C@H]([C@H](O)C(C)(C)O)OC2C1[C@@]1(C)CC[C@@]34C[C@@]35CC[C@H](O)C(C)(C)[C@@H]5CC[C@H]4[C@]1(C)[C@H]2O (stereo partly shown) [drawing 890]
% Inhibition (range): E (% inhibition of 25-75%)

CC(=O)O[C@@H]([C@H]1C[C@@H](C)C2C(O1)[C@H](O)[C@@]1(C)[C@@H]3CC[C@H]4C(C)(C)[C@@H](O[C@@H]5OC[C@@H](O)[C@H](O)[C@H]5O)CC[C@@]45C[C@@]35CC[C@]21C)C(C)(C)O (stereo partly shown) [drawing 891]
IC50 (5 h): ≤ 1000 nM

C[C@@H]1C[C@H]([C@H](O)C(C)(C)O)OC2C(=O)[C@@]3(C)[C@@H]4CC[C@H]5C(C)(C)[C@@H](O)CC[C@@]56C[C@@]46CC[C@]3(C)C21 (stereo partly shown) [drawing 893]
inhibition at 10 µM: < 25%

C[C@@H]1C[C@H]([C@H](O)C(C)(C)O)OC2C(=O)[C@@]3(C)[C@@H]4CC[C@H]5C(C)(C)[C@@H](O)CC[C@@]56C[C@@]46CC[C@]3(C)C21 (stereo partly shown) [drawing 894]
inhibition at 100 µM: 25 to 75%

CC(=O)O[C@@H]([C@H]1C[C@@H](C)C2C(O1)C(=O)[C@@]1(C)[C@@H]3CC[C@H]4C(C)(C)[C@@H](O[C@@H]5OC[C@@H](O)[C@H](O)[C@H]5O)CC[C@@]45C[C@@]35CC[C@]21C)C(C)(C)O (stereo partly shown) [drawing 895]
IC50 (5 h): > 1000 nM

CC(=O)O[C@@H]([C@H]1C[C@@H](C)C2C(O1)[C@H](O)[C@@]1(C)[C@@H]3CC[C@H]4C(C)(C)[C@@H](O)CC[C@@]45C[C@@]35CC[C@]21C)C(C)(C)O (stereo partly shown) [drawing 897]
IC50 (5 h): ≤ 1000 nM

CCC(=O)O[C@@H]([C@H]1C[C@@H](C)C2C(O1)[C@H](O)[C@@]1(C)[C@@H]3CC[C@H]4C(C)(C)[C@@H](O)CC[C@@]45C[C@@]35CC[C@]21C)C(C)(C)O (stereo partly shown) [drawing 908]
IC50 (5 h): > 10000 nM
inhibition at 100 µM: 25 to 75%

CC(=O)OCC1C[C@@H](C)C2C(O1)[C@H](O)[C@@]1(C)[C@@H]3CC[C@H]4C(C)(C)[C@@H](O)CC[C@@]45C[C@@]35CC[C@]21C (stereo partly shown) [drawing 923]
inhibition at 20 µM: < 25%

CC(=O)O[C@@H]([C@H]1C[C@@H](C)C2C(O1)[C@H](O)[C@@]1(C)[C@@H]3CC[C@H]4C(C)(C)[C@H](O)CC[C@@]45C[C@@]35CC[C@]21C)C(C)(C)O (stereo partly shown) [drawing 925]
IC50 (5 h): ≤ 1000 nM

CO[C@@H]1[C@@H](OC)[C@H](O[C@H]2CC[C@]34C[C@]35CC[C@]3(C)C6C(O[C@@H]([C@H](OC(C)=O)C(C)(C)O)C[C@H]6C)[C@H](O)[C@@]3(C)[C@@H]5CC[C@H]4C2(C)C)OC[C@H]1OC (stereo partly shown) [drawing 937]
IC50: < 10000 nM

CO[C@@H]1[C@@H](OC)[C@H](O[C@H]2CC[C@]34C[C@]35CC[C@]3(C)C6C(O[C@@H]([C@H](OC(C)=O)C(C)(C)O)C[C@H]6C)[C@H](O)[C@@]3(C)[C@@H]5CC[C@H]4C2(C)C)OC[C@H]1OC (stereo partly shown) [drawing 938]
IC50: ≤ 1000 nM

CC(=O)O[C@@H]([C@H]1C[C@@H](C)C2C(O1)[C@H](O)[C@@]1(C)[C@@H]3CC[C@H]4C(C)(C)[C@@H](OC5CN(CC(N)=O)CCO5)CC[C@@]45C[C@@]35CC[C@]21C)C(C)(C)O (stereo partly shown) [drawing 942]
IC50 (5 h): ≤ 1000 nM

CC(=O)O[C@@H]([C@H]1C[C@@H](C)C2C(O1)[C@H](O)[C@@]1(C)[C@@H]3CC[C@H]4C(C)(C)[C@H](O)CC[C@@]45C[C@@]35CC[C@]21C)C(C)(C)O (stereo partly shown) [drawing 944]
IC50: 1000 to 10000 nM

CC(=O)O[C@@H]([C@H]1C[C@@H](C)C2C(O1)[C@H](O)[C@@]1(C)[C@@H]3CC[C@H]4C(C)(C)[C@@H](OC5CN(CC(=O)N(C)C)CCO5)CC[C@@]45C[C@@]35CC[C@]21C)C(C)(C)O (stereo partly shown) [drawing 947]
IC50 (5 h): ≤ 1000 nM

CC(=O)O[C@@H]([C@H]1C[C@@H](C)C2C(O1)[C@H](O)[C@@]1(C)[C@@H]3CC[C@H]4C(C)(C)[C@@H](OC(=O)c5cccnc5)CC[C@@]45C[C@@]35CC[C@]21C)C(C)(C)O (stereo partly shown) [drawing 951]
IC50 (5 h): ≤ 1000 nM

CC(=O)O[C@@H]([C@H]1C[C@@H](C)[C@H]2[C@H](O1)[C@H](O)[C@@]1(C)[C@@H]3CC[C@H]4C(C)(C)C(OC(N)=O)CC[C@@]45C[C@@]35CC[C@]21C)C(C)(C)O (stereo partly shown) [drawing 964]
IC50 (5 h): ≤ 1000 nM

CC(=O)O[C@@H]([C@H]1C[C@@H](C)[C@H]2[C@H](O1)C(=O)[C@@]1(C)[C@@H]3CC[C@H]4C(C)(C)[C@@H](O[C@H]5CN(CC(N)=O)CCO5)CC[C@@]45C[C@@]35CC[C@]21C)C(C)(C)O [drawing 969]
IC50 (5 h): ≤ 1000 nM
